System: 3T3 cells
Assay: Biocompatibility evaluation (live/dead, CCK-8, extract medium)
Assay type: cell-based
Experimental: The tests in this example were conducted under the following conditions/standards. • 5. Mechanical property test: The mechanical properties of bionic excipients were based on the ASTM F2458-05 standard. GelMA, PGLADMA and double-layer GelMA/PGLADMA samples with a size of 20×5 mm were prepared and stretched at a rate of 1 mm/min using a two-arm mechanical tensile instrument at room temperature, and the mechanical properties were calculated, where tensile elastic modulus=stress/strain. For example, reference can be made to the test method in Theocharidis G, Yuk H, Roh H, et al. A strain-programmed patch for the healing of diabetic wounds [J]. Nature biomedical engineering, 2022, 6 (10): 1118-1133. • 6. Hemostatic property: For the hemostatic properties of bionic excipients, for example, reference can be made to Guo Y, Wang Y, Zhao X, et al. Snake extract-laden hemostatic bioadhesive gel cross-linked by visible light [J]. Science Advances, 2021, 7 (29): cabf9635. • 7. […] After 1, 2, and 3 days of incubation, cell viability and cell proliferation were evaluated using a live/dead cell detection kit (Thermo Fisher, Hong Kong) and a CCK-8 kit (Sigma-Aldrich, Hong Kong), respectively. […]

## Oc1cc(Cl)ccc1Oc1ccc(Cl)cc1Cl [TCS, triclosan]
TCS concentration below 5%
  toxicity to cells: no toxicity
TCS concentration of around 10%
  toxicity to cells: only slightly toxic
